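Step 1: Grow cells in 96-well plates. Step 2: Expose to compound for 48 hours at 5 concentrations. Step 3: Interpolate endpoints linearly; if unreached, use highest concentration. The concentration for full growth arrest is given as TGI.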
Experiments:
Test in all cases: NCI tumour cell line growth inhibition, 48 h
[1] = test system: 786-0 renal
[2] = test system: A498 renal
[3] = test system: A549 NSCLC
[4] = test system: ACHN renal
[5] = test system: BT-549 breast
[6] = test system: CAKI-1 renal
[7] = test system: CCRF-CEM leukemia
[8] = test system: COLO 205 colon
[9] = test system: DU-145 prostate
[10] = test system: EKVX NSCLC
[11] = test system: HCC-2998 colon
[12] = test system: HCT-116 colon
[13] = test system: HCT-15 colon
[14] = test system: HL-60(TB) leukemia
[15] = test system: HOP-62 NSCLC
[16] = test system: HOP-92 NSCLC
[17] = test system: HS 578T breast
[18] = test system: HT29 colon
[19] = test system: IGROV1 ovarian
[20] = test system: K-562 leukemia
[21] = test system: KM12 colon
[22] = test system: LOX IMVI melanoma
[23] = test system: M14 melanoma
[24] = test system: MALME-3M melanoma
[25] = test system: MCF7 breast
[26] = test system: MDA-MB-231 breast
[27] = test system: MDA-MB-435
[28] = test system: MDA-N
[29] = test system: MOLT-4 leukemia
[30] = test system: NCI-H226 lung
[31] = test system: NCI-H23 lung
[32] = test system: NCI-H460 lung
[33] = test system: NCI-H522 lung
[34] = test system: NCI/ADR-RES ovarian
[35] = test system: OVCAR-3 ovarian
[36] = test system: OVCAR-4 ovarian
[37] = test system: OVCAR-5 ovarian
[38] = test system: OVCAR-8 ovarian
[39] = test system: PC-3 prostate
[40] = test system: RPMI-8226 leukemia
[41] = test system: SF-268 CNS
[42] = test system: SF-295 CNS
[43] = test system: SF-539 CNS
[44] = test system: SK-MEL-2 melanoma
[45] = test system: SK-MEL-28 melanoma
[46] = test system: SK-MEL-5 melanoma
[47] = test system: SK-OV-3 ovarian
[48] = test system: SN12C renal
[49] = test system: SNB-19 CNS
[50] = test system: SNB-75 CNS
[51] = test system: SW-620 colon
[52] = test system: T-47D breast
[53] = test system: TK-10 renal
[54] = test system: U251 CNS
[55] = test system: UACC-257 melanoma
[56] = test system: UACC-62 melanoma
[57] = test system: UO-31 renal
[58] = test system: RXF 393 renal

Work on Fc1ccc(C(OCCN2CC3CCC(C2)N3CCCc2ccccc2)c2ccc(F)cc2)cc1 yielded a TGI [1] of 13.4 µM, a TGI [2] of 17.7 µM and a TGI [3] of 21.5 µM. The TGI [4] was 22.4 µM, the TGI [5] was 24.8 µM and the TGI [6] was 19.1 µM. For the same compound, the TGI [7] was 15.6 µM, the TGI [8] was 2.74 µM and the TGI [9] was 22.6 µM. It also gave a TGI [10] of 16.4 µM, a TGI [11] of 8.06 µM and a TGI [12] of 11.3 µM. It also gave a TGI [13] of 12.2 µM, a TGI [14] of 14.1 µM and a TGI [15] of 21.3 µM. It also gave a TGI [16] of 21.1 µM, a TGI [17] of 13.6 µM and a TGI [18] of 13.7 µM. The TGI [19] was 21.1 µM, the TGI [20] was 4.99 µM and the TGI [21] was 12.2 µM. For the same compound, the TGI [22] was 13 µM, the TGI [23] was 6.26 µM and the TGI [24] was 11.2 µM. It also gave a TGI [25] of 10.7 µM, a TGI [26] of 10.2 µM and a TGI [27] of 4.68 µM. The TGI [28] was 11.8 µM, the TGI [29] was 9.01 µM and the TGI [30] was 13.1 µM. For the same compound, the TGI [31] was 15.3 µM, the TGI [32] was 9.75 µM and the TGI [33] was 5.15 µM. It also gave a TGI [34] of 15.2 µM, a TGI [35] of 21.8 µM and a TGI [36] of 16.4 µM. For the same compound, the TGI [37] was 23.3 µM, the TGI [38] was 5.39 µM and the TGI [39] was 10.4 µM. For the same compound, the TGI [40] was 4.8 µM, the TGI [41] was 15.1 µM and the TGI [42] was 11.8 µM. It also gave a TGI [43] of 3.63 µM, a TGI [44] of 12 µM and a TGI [45] of 22.2 µM. It also gave a TGI [46] of 3.4 µM, a TGI [47] of 23.3 µM and a TGI [48] of 13.6 µM. It also gave a TGI [49] of 22.1 µM, a TGI [50] of 17 µM and a TGI [51] of 17.3 µM. The TGI [52] was 6.28 µM, the TGI [53] was 24 µM and the TGI [54] was 16.1 µM. For the same compound, the TGI [55] was 11.9 µM, the TGI [56] was 21.3 µM and the TGI [57] was 19.4 µM.

Cn1cc(-c2csc(-c3cn(C)c4ccccc34)n2)c2ccccc21 was tested, and the TGI [1] was greater than 100 µM, the TGI [2] was 48.1 µM and the TGI [3] was greater than 100 µM. The TGI [4] was greater than 100 µM, the TGI [5] was greater than 100 µM and the TGI [6] was greater than 100 µM. The TGI [7] was greater than 100 µM, the TGI [8] was greater than 100 µM and the TGI [9] was greater than 100 µM. It also gave a TGI [12] greater than 100 µM, a TGI [13] greater than 100 µM and a TGI [14] greater than 100 µM. The TGI [15] was 45.7 µM, the TGI [16] was 94.5 µM and the TGI [17] was greater than 100 µM. The TGI [18] was greater than 100 µM, the TGI [19] was greater than 100 µM and the TGI [20] was 31.9 µM. The TGI [21] was greater than 100 µM, the TGI [22] was greater than 100 µM and the TGI [23] was greater than 100 µM. For the same compound, the TGI [24] was 70 µM, the TGI [25] was greater than 100 µM and the TGI [26] was 60.1 µM. It also gave a TGI [27] greater than 100 µM, a TGI [28] greater than 100 µM and a TGI [29] of 42 µM. The TGI [30] was greater than 100 µM, the TGI [31] was greater than 100 µM and the TGI [32] was greater than 100 µM. The TGI [33] was greater than 100 µM, the TGI [34] was greater than 100 µM and the TGI [35] was 64 µM. The TGI [36] was greater than 100 µM, the TGI [37] was greater than 100 µM and the TGI [38] was greater than 100 µM. The TGI [39] was 89.8 µM, the TGI [40] was 85 µM and the TGI [58] was 54.4 µM. The TGI [41] was greater than 100 µM, the TGI [42] was greater than 100 µM and the TGI [44] was greater than 100 µM. For the same compound, the TGI [45] was greater than 100 µM, the TGI [46] was greater than 100 µM and the TGI [48] was greater than 100 µM. For the same compound, the TGI [49] was greater than 100 µM, the TGI [51] was greater than 100 µM and the TGI [52] was 89.6 µM. The TGI [53] was greater than 100 µM, the TGI [54] was greater than 100 µM and the TGI [55] was greater than 100 µM. For the same compound, the TGI [56] was greater than 100 µM and the TGI [57] was greater than 100 µM.
